From patent US20220220155A1, “VASCULAR C[…] USE THEREOF” (priority 2019, published 2022)
Where a SMILES comes first, the peptide text is derived from it. [ ]: non-standard residue; d: D form. ξ: configuration not given here. ξD = NC(CC(=O)O)C(=O)O

Key:
[1] = target: T1, SMase-treated LDL (Homo sapiens, UniProt P04114); assay: Anti-LDL aggregation assay, turbidimetry, aggregation induced by sphingomyelinase (SMase); assay type: biochemical; conditions: peptide 10 μM (compound/ApoB-100 4.7/1), human LDL 1.44 mg/mL, 40 U/L Bacillus cereus SMase, 18 hours, 37° C., absorbance at 405 nm, Equation I
T1 construct: from tissue; host or cells: pooled normolipemic human plasma
T1 sequence (P04114 28-4563): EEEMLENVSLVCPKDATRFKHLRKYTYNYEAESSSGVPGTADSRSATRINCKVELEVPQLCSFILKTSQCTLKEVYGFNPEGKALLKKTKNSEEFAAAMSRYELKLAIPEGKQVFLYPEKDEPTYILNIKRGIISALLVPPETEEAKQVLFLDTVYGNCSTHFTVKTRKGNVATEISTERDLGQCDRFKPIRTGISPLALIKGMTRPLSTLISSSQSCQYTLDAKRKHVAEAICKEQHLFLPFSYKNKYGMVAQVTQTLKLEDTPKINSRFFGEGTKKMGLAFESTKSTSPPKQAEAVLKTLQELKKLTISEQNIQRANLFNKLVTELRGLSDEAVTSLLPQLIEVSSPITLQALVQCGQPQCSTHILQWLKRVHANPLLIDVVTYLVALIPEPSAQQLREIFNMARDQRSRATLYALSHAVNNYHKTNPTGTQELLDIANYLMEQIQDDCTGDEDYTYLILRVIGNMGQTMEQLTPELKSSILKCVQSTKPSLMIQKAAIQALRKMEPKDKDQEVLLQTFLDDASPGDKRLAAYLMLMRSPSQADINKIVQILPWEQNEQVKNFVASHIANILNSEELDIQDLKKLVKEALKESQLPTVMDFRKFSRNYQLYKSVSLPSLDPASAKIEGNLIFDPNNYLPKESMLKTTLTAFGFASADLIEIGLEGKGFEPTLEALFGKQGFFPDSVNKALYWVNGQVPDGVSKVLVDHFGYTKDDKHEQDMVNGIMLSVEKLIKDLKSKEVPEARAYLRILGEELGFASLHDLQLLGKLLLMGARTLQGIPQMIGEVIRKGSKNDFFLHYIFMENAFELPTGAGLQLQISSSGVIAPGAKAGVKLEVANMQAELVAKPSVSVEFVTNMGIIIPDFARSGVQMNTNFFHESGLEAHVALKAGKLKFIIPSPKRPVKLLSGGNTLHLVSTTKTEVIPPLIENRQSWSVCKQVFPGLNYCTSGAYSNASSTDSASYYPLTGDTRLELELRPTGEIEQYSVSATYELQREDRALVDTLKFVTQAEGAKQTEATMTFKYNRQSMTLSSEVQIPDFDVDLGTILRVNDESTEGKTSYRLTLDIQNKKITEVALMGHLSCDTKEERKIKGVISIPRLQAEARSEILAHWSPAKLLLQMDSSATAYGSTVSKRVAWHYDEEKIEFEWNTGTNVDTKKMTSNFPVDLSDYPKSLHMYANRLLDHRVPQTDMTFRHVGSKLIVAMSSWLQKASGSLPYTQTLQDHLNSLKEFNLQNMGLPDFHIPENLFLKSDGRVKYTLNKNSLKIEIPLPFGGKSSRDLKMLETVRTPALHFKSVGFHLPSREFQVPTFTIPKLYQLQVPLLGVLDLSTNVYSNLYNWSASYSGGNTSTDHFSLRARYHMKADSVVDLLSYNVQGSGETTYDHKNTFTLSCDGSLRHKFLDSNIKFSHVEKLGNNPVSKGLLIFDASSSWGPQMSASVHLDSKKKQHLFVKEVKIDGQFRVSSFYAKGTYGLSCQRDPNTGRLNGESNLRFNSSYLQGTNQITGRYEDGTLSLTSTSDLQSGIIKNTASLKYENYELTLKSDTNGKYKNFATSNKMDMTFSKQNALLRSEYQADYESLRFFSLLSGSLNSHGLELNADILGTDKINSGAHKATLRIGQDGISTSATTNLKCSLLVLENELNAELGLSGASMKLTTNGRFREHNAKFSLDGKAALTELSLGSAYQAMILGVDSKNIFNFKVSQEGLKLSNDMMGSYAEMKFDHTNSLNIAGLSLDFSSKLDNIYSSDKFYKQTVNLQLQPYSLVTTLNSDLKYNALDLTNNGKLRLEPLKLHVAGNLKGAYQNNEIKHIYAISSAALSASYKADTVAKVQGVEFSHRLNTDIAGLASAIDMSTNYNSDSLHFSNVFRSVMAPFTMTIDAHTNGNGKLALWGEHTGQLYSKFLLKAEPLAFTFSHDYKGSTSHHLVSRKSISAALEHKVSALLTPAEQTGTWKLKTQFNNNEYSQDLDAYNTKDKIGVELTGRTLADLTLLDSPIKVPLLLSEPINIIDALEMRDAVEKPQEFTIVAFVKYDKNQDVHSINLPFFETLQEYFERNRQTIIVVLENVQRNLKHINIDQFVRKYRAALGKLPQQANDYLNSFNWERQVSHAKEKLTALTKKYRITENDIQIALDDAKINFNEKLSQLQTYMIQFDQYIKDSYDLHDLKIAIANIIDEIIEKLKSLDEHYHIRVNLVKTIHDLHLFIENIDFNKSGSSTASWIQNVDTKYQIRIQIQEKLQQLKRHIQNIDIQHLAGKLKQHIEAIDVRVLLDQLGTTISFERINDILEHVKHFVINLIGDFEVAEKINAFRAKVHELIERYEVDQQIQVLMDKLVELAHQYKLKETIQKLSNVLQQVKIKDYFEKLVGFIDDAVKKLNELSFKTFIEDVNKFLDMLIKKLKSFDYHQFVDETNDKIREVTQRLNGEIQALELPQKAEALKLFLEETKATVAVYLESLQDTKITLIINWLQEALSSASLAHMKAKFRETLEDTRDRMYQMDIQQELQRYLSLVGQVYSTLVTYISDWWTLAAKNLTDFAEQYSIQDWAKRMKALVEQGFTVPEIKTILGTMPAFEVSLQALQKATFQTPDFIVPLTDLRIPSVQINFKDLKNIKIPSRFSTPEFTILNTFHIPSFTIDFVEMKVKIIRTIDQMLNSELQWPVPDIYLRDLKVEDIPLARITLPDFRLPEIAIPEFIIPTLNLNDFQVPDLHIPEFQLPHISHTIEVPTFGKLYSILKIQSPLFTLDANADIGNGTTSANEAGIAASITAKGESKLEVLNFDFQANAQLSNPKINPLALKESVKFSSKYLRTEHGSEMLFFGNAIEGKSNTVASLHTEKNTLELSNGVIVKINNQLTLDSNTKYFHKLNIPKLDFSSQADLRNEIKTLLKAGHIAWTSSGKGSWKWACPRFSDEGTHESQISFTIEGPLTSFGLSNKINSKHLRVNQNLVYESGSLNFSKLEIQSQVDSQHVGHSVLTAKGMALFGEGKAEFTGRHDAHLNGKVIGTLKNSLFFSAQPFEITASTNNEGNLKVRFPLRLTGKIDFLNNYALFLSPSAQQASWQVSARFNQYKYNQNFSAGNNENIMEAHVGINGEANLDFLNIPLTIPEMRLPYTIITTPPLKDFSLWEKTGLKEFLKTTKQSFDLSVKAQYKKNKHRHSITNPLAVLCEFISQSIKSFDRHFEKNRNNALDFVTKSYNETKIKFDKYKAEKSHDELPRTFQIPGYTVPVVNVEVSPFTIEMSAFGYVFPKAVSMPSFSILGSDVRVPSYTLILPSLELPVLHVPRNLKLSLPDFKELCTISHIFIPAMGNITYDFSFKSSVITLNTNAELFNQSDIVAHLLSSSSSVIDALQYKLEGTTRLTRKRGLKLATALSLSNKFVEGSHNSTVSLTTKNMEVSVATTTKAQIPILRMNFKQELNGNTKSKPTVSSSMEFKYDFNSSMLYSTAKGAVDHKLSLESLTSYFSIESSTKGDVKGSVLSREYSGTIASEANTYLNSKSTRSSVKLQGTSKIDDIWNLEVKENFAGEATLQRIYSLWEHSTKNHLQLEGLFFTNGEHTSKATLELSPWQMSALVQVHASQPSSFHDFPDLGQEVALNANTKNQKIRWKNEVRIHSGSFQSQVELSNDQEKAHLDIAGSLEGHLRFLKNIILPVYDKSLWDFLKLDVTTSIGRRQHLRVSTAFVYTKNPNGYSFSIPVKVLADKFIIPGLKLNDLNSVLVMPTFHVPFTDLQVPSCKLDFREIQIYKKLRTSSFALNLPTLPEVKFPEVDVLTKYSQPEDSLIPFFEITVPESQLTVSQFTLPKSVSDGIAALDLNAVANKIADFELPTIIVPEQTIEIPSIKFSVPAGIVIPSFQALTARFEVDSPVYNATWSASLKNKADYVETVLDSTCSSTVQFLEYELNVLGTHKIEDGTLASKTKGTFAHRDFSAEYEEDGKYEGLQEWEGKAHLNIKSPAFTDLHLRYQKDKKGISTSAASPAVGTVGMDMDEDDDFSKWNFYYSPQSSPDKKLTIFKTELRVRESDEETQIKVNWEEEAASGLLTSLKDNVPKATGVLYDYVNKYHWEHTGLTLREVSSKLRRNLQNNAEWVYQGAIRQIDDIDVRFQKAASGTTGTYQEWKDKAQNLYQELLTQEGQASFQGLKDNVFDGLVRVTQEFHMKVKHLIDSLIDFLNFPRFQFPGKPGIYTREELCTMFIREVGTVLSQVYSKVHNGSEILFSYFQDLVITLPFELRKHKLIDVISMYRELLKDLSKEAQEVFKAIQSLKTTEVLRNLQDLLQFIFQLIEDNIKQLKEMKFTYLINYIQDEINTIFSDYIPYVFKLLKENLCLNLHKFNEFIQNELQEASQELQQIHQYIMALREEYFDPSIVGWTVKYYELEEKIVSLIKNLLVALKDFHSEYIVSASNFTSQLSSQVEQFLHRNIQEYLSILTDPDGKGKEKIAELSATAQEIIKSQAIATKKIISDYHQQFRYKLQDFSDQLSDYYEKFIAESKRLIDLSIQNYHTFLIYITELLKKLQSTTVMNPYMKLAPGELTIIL
Method: (§1) The efficacy of the novel compounds to inhibit the aggregation of LDL has been tested in two parallel turbidimetric assays differing from each other only in the enzyme used to induce LDL aggregation, namely sphingomyelinase (SMase) and phospholipase A2 (PLA2), respectively.
(§2) Human LDL (d1.019-d1.063 g/mL) were obtained from pooled normolipemic human plasma by sequential ultracentrifugation in a KBr density gradient. Briefly, VLDL were first discarded after spinning plasma at 36.000 rpm for 18 h at 4° C., VLDL-free plasma was layered with 1.063 g/mL KBr solution and centrifuged at 36,000 rpm for 18 h at 4° C. LDL were dialyzed against 0.02 M Tris, 0.15 M NaCl, 1 mM EDTA, pH 7.5 for 18 hours, and then against normal saline for 2 hours. Finally, isolated LDL were filter-sterilized. Protein concentration was determined using a colorimetric assay.
(§3) Human LDL particles (1.44 mg/mL) were incubated with 40 U/L of Bacillus cereus SMase or with 50 μg/L of type II secretory PLA2 from honey bee venom in 20 mM Tris buffer (pH 7.0) containing 150 mM NaCl, 2 mM CaCl2), and MgCl2 at 37° C. LDL incubation with SMase and PLA2 was performed at peptide concentration of 10 μM (ratio compound/ApoB-100: 4.7/1) for 18 hours. LDL lipolysis was stopped by addition of EDTA (final concentration 10 mM).
(§4) The efficiency of each novel compound to inhibit LDL aggregation induced by SMase and PLA2 was estimated by turbidimetry measuring the absorbance at a wavelength of 405 nm. Thus, the inhibitory activity was calculated according to Equation I.
(§5) a corresponds to the absorbance value in the presence of nLDL particles, LDL aggregating enzyme (i.e., SMase or PLA2) and test compound;
(§6) b corresponds to the absorbance value in the presence of only nLDL particles;
(§7) c corresponds to the absorbance value in the presence of nLDL particles and LDL aggregating enzyme (i.e., SMase or PLA2);

[2] = target: T2, PLA2-treated LDL (Homo sapiens, UniProt P04114); assay: Anti-LDL aggregation assay, turbidimetry, aggregation induced by phospholipase A2 (PLA2); assay type: biochemical; conditions: 18 h, read-out: Inhibition of LDL aggregation, PLA2-treated LDL
T2 construct: from tissue; host or cells: pooled normolipemic human plasma
T2 sequence (P04114 28-4563): as above
Method: as §1, §2, §3, §4, §5, §6, §7

[3] = tested on: human coronary vascular smooth muscle cells (hcVSMC); assay: Inhibition of intracellular cholesterol accumulation induced by SMase (CE/FC ratio); assay type: cell-based; conditions: hcVSMC exposed 2 hours to SMase-LDL treated overnight with peptide 10 μM; CE and FC by thin layer chromatography and densitometry, Equation II
Method: Thus, the inhibitory effect of the novel compounds on the intracellular cholesterol accumulation has been analysed in terms of decrease in the ratio of intracellular CE and free cholesterol FC content of hcVSMC exposed to LDL and SMase-LDL.
All cells used were from a unique batch in order to prevent variability from cell origin. Cell quiescence was induced by maintaining the cell culture for 24 hours in a medium. Serum-deprived cells between passages 4 and 8 were used for experiments. VSMCs at these passages appeared as a relatively homogeneous population, showing a hill-and-valley confluence pattern. Cell monolayers were grown in vascular cell basal medium supplemented with vascular smooth muscle growth kit components. Quiescent cells were 2-hours exposed to LDL treated with SMase (in absence or presence of peptides) overnight at a concentration of 10 μM previously checked its aggregation by a turbidimetry test. Cells were then either collected for lipid extraction or processed for confocal microscopy analysis.
Following the lipoprotein incubation period, hcVSMC were exhaustively washed (twice with PBS, twice with PBS supplemented with 1% BSA, and once with PBS supplemented with both 1% BSA and 100 U/mL heparin), before they were harvested into 1 mL of 0.15 M NaOH. Lipids were extracted using the Bligh and Dyer method. The lipid extract was redissolved in dichloromethane, applied to silica gel plates, and separated by thin layer chromatography. A mixture of cholesterol and cholesterol palmitate, were also run as standards. Heptane or a solvent combination of heptane/diethylether/acetic acid (74:21:4, v/v/v) were used as chromatographic mobile phase. After lipid separation, the plates were dried and stained as previously reported. Finally, the spots corresponding to cholesteryl ester (CE) and free cholesterol (FC) were quantitated by densitometry.
The efficacy of each novel compound to decrease the ratio of intracellular cholesteryl esters (CE) and free cholesterol (FC) content of hcVSMC exposed to LDL and SMase-LDL was calculated according to Equation II.
a corresponds to the CE/FC ratio in hcVSMC exposed to SMase-LDL and in the presence of the test compound.
b corresponds to the CE/FC ratio in hcVSMC exposed to nLDL in the absence of the test compound.
c corresponds to the CE/FC ratio in hcVSMC exposed to SMase-LDL in the absence of the test compound.

Compound | inhibition at 10 µM [1] [%] | inhibition at 10 µM [2] [%] | CE/FC ratio decrease (%) [3] [%]
CC(=O)N[C@H](CC(=O)O)C(=O)N[C@H](CO)C(=O)N[C@H](CCC(=O)O)C(=O)N[C@H](CC(=O)O)C(=O)N[C@H](CC(N)=O)C(=O)N[C@H](CCCCN)C(=O)N[C@H](CC(=O)O)C(=O)N[C@H](CCC(=O)O)C(=O)N[C@H](CCC(=O)O)C(=O)N[C@H](C)C(N)=O [Example 19, Ac-D-Asp-D-Ser-D-Glu-D-Asp-D-Asn-D-Lys-D-Asp-D-Glu-D-Glu-D-Ala-NH2] (Ac-[dD][dS][dE][dD][dN][dK][dD][dE][dE][dA]-NH2) | 87.5 | 46.2 | 17.7
CC(=O)N[C@H](CO)C(=O)N[C@H](CCC(=O)O)C(=O)N[C@H](CC(=O)O)C(=O)N[C@H](CCC(N)=O)C(=O)N[C@H](CO)C(=O)N[C@H](CCC(=O)O)C(=O)N[C@H](CCC(=O)O)C(=O)N[C@H](CCC(=O)O)C(=O)N[C@H](CCC(N)=O)C(N)=O [Example 4, Ac-D-Ser-D-Glu-D-Asp-D-Gln-D-Ser-D-Glu-D-Glu-D-Glu-D-Gln-NH2] (Ac-[dS][dE][dD][dQ][dS][dE][dE][dE][dQ]-NH2) | 91.5 | 32.6 | –
CC(=O)N[C@H](CC(=O)O)C(=O)N[C@H](CC(N)=O)C(=O)N[C@H](CC(=O)O)C(=O)N[C@H](CO)C(=O)N[C@H](CCC(=O)O)C(=O)N[C@H](CC(=O)O)C(=O)N[C@H](CC(N)=O)C(=O)N[C@H](CO)C(=O)N[C@H](CC(=O)O)C(=O)N[C@H](CCC(=O)O)C(=O)N[C@H](CCC(=O)O)C(=O)N[C@H](CC(N)=O)C(N)=O [Example 10, Ac-D-Asp-D-Asn-D-Asp-D-Ser-D-Glu-D-Asp-D-Asn-D-Ser-D-Asp-D-Glu-D-Glu-D-Asn-NH2] (Ac-[dD][dN][dD][dS][dE][dD][dN][dS][dD][dE][dE][dN]-NH2) | 96 | 94 | 78.4
CC(=O)NCC(=O)N[C@H](CC(=O)O)C(=O)N[C@H](CC(N)=O)C(=O)N[C@H](CC(=O)O)C(=O)N[C@H](CO)C(=O)N[C@H](CCC(=O)O)C(=O)N[C@H](CC(=O)O)C(=O)N[C@H](CC(N)=O)C(=O)N[C@H](CO)C(=O)N[C@H](CC(=O)O)C(=O)N[C@H](CCC(=O)O)C(=O)N[C@H](CCC(=O)O)C(=O)N[C@H](CC(N)=O)C(N)=O [Example 1, Ac-Gly-D-Asp-D-Asn-D-Asp-D-Ser-D-Glu-D-Asp-D-Asn-D-Ser-D-Asp-D-Glu-D-lu-D-Asn-NH2] (Ac-G[dD][dN][dD][dS][dE][dD][dN][dS][dD][dE][dE][dN]-NH2) | 92.5 | 77.5 | 76.5
CC(=O)N[C@H](CC(=O)O)C(=O)N[C@H](CC(N)=O)C(=O)N[C@H](CC(=O)O)C(=O)N[C@H](CO)C(=O)N[C@H](CCC(=O)O)C(=O)NC(CC(=O)O)C(=O)N[C@H](CC(N)=O)C(=O)N[C@H](CO)C(=O)N[C@H](CC(=O)O)C(=O)N[C@H](CCC(=O)O)C(=O)N[C@H](CCC(=O)O)C(=O)N[C@H](C)C(N)=O (stereo partly drawn) [Example 13, Ac-D-Asp-D-Asn-D-Asp-D-Ser-D-Glu-D-Asp-D-Asn-D-Ser-D-Asp-D-Glu-D-Glu-D-Ala-NH2] (Ac-[dD][dN][dD][dS][dE][ξD][dN][dS][dD][dE][dE][dA]-NH2) | 95.5 | 95.9 | 80.4
CC(=O)N[C@H](CC(=O)O)C(=O)N[C@H](CO)C(=O)N[C@H](CCC(=O)O)C(=O)N[C@H](CC(=O)O)C(=O)N[C@H](CC(N)=O)C(=O)N[C@H](CO)C(=O)N[C@H](CC(=O)O)C(=O)N[C@H](CCC(=O)O)C(=O)N[C@H](CCC(=O)O)C(=O)N[C@H](CC(N)=O)C(N)=O [Example 12, Ac-D-Asp-D-Ser-D-Glu-D-Asp-D-Asn-D-Ser-D-Asp-D-Glu-D-Glu-D-Asn-NH2] (Ac-[dD][dS][dE][dD][dN][dS][dD][dE][dE][dN]-NH2) | 93.3 | 94.3 | 76.5
CC(=O)N[C@H](CC(=O)O)C(=O)N[C@H](CO)C(=O)N[C@H](CCC(=O)O)C(=O)N[C@H](CC(=O)O)C(=O)N[C@H](CC(N)=O)C(=O)N[C@H](CO)C(=O)N[C@H](CC(=O)O)C(=O)N[C@H](CCC(=O)O)C(=O)N[C@H](CCC(=O)O)C(=O)N[C@H](C)C(N)=O [Example 15, Ac-D-Asp-D-Ser-D-Glu-D-Asp-D-Asn-D-Ser-D-Asp-D-Glu-D-Glu-D-Ala-NH2] (Ac-[dD][dS][dE][dD][dN][dS][dD][dE][dE][dA]-NH2) | 96 | 95.9 | 90.2
CC(=O)N[C@H](CO)C(=O)N[C@H](CCC(=O)O)C(=O)N[C@H](CC(=O)O)C(=O)N[C@H](CCC(N)=O)C(=O)N[C@H](C)C(=O)N[C@H](CCC(=O)O)C(=O)N[C@H](CCC(=O)O)C(=O)N[C@H](CCC(=O)O)C(=O)N[C@H](C)C(N)=O [Example 5, Ac-D-Ser-D-Glu-D-Asp-D-Gln-D-Ala-D-Glu-D-Glu-D-Glu-D-Ala-NH2] (Ac-[dS][dE][dD][dQ][dA][dE][dE][dE][dA]-NH2) | 90.1 | 20.7 | –
CC(=O)N[C@H](CC(=O)O)C(=O)N[C@H](CO)C(=O)N[C@H](CCC(=O)O)C(=O)N[C@H](CC(=O)O)C(=O)N[C@H](CC(N)=O)C(=O)N[C@H](CCCCN)C(=O)N[C@H](CC(=O)O)C(=O)N[C@H](CCC(=O)O)C(=O)N[C@H](CCC(=O)O)C(=O)N[C@H](CC(N)=O)C(N)=O [Example 18, Ac-D-Asp-D-Ser-D-Glu-D-Asp-D-Asn-D-Lys-D-Asp-D-Glu-D-Glu-D-Asn-NH2] (Ac-[dD][dS][dE][dD][dN][dK][dD][dE][dE][dN]-NH2) | 85.1 | 55.1 | 47.6
CC(=O)N[C@H](CO)C(=O)N[C@H](CCC(=O)O)C(=O)N[C@H](CC(=O)O)C(=O)N[C@H](CC(N)=O)C(=O)N[C@H](CCCNC(=N)N)C(=O)N[C@H](CC(=O)O)C(=O)N[C@H](CCC(=O)O)C(=O)N[C@H](CCC(=O)O)C(=O)N[C@H](CC(C)C)C(N)=O [Example 7, Ac-D-Ser-D-Glu-D-Asp-D-Asn-D-Arg-D-Asp-D-Glu-D-Glu-D-Leu-NH2] (Ac-[dS][dE][dD][dN][dR][dD][dE][dE][dL]-NH2) | 44.7 | -1.9 | –
CC(=O)N[C@H](CO)C(=O)N[C@H](CCC(=O)O)C(=O)N[C@H](CC(=O)O)C(=O)N[C@H](CC(N)=O)C(=O)N[C@H](C)C(=O)N[C@H](CC(=O)O)C(=O)N[C@H](CCC(=O)O)C(=O)N[C@H](CCC(=O)O)C(=O)N[C@H](C)C(N)=O [Example 3, Ac-D-Ser-D-Glu-D-Asp-D-Asn-D-Ala-D-Asp-D-Glu-D-Glu-D-Ala-NH2] (Ac-[dS][dE][dD][dN][dA][dD][dE][dE][dA]-NH2) | 90 | 37.2 | –
CC(=O)N[C@H](CO)C(=O)N[C@H](CCC(=O)O)C(=O)N[C@H](CC(=O)O)C(=O)N[C@H](CC(N)=O)C(=O)N[C@H](CCCNC(=N)N)C(=O)N[C@H](CC(=O)O)C(=O)N[C@H](CCC(=O)O)C(=O)N[C@H](CCC(=O)O)C(=O)N[C@H](Cc1c[nH]c2ccccc12)C(N)=O [Example 8, Ac-D-Ser-D-Glu-D-Asp-D-Asn-D-Arg-D-Asp-D-Glu-D-Glu-D-Trp-NH2] (Ac-[dS][dE][dD][dN][dR][dD][dE][dE][dW]-NH2) | 64.2 | 3.1 | –
